From patent publication US20060188557A1, “Prepartaion for external percutaneous administration containing non-steroidal anti-inflammatory drug and interleukin-1 alpha production inhibitor” (Hisamitsu Pharmaceutical Co., Inc., priority 2003, published 2006)

How the values were obtained:
[1] = system: auricle of a Balb/c mouse; test: In vivo photosensitivity test (ketoprofen-induced ear thickness increase after UVA); details: 20 μL on auricle, 40 J/cm^2 UVA, 24 hours
Protocol: The following experiment was conducted with reference to the method of Gerberick et al. (Food Chem. Toxicol., 27, 813-819(1989)) with some modifications. First, ethanol was used to prepare a mixed solution containing the test substances shown in Tables 4 and 5 {tert-butylhydroxyanisole (BHA), di-tert-butylhydroxytoluene […], propyl gallate} and 2% ketoprofen. As a control a 2% ketoprofen solution was prepared using ethanol. Next, 20 μL of each prepared solution (N=8) was applied onto the auricle of a Balb/c mouse (female, 9-11 weeks old), prior to irradiation with 40 J/cm^2 UVA. When 24 hours had passed after UVA irradiation, the ear thickness of the mouse was measured and the increase with respect to the initial ear thickness was calculated. […] The abbreviation “PG” in the tables stands for “propyl gallate”.

[2] = system: heparin-added rabbit venous blood (whole blood); test: In vitro phototoxicity test (ketoprofen-associated photohemolysis); type: cell-based; details: Oryctolagus cuniculus, light or radiation study, with ketoprofen, 7.5 J/cm^2 UVA
Protocol: The following experiment was conducted according to “Guidelines for basic biological tests of medical materials and devices”, Part VII “Hemolysis Test”. First, each of the test substances listed in Table I (Example 1), Table 2 (Example 2) and Table 3 (Example 3) {tert-butylhydroxyanisole (BHA), di-tert-butylhydroxytoluene (BHT), thymol, propyl gallate} and ketoprofen were dissolved in N,N-dimethylformamide (DMF) to 20-fold compared to the concentration shown in the tables (1000 μg/mL of ketoprofen). Also, after further diluting these solutions 5-fold in phosphate buffered saline (PBS), equal amounts of each test substance solution and the ketoprofen solution were combined. As a control, ketoprofen alone was dissolved in DMF to […], and diluted 10-fold with PBS to prepare a solution. These solutions were dispensed in 1 mL portions into a 24-well multiwell plate, and then 1 mL of PBS containing 40 μL of heparin-added rabbit venous blood (whole blood) per 5 mL was added to each to prepare reaction solutions.
An ultraviolet irradiating apparatus (UVP Lamp Fixture, UVP) equipped with two ultraviolet lamps (FL15BLB, Sankyo Denki) was used to irradiate the reaction solutions with 7.5 J/cm^2 UVA (ultraviolet rays of wavelength 320-400 nm) in an incubator set to 37° C., with the cover removed from the plate containing the reaction solutions (UVA is associated with drug-induced photosensitivity). During the ultraviolet irradiation, a 3 mm-thick glass plate was placed between the light source and the reaction solutions to cut ultraviolet rays of 320 nm wavelength and shorter. The incubation time was 60 minutes, including the irradiation time. After completion of the reaction, the solutions were centrifuged, the obtained 100 μL of supernatant (N=3) was transferred to a 96-well assay plate and the absorbance at 540 nm (Abs540) was measured as an index of hemolysis. The effects of each of the test substances in Tables 1 to 3 on ketoprofen-associated photohemolysis were evaluated as the hemolysis inhibition (%) with respect to the control group, calculated using Abs540.

[3] = Synergistic phototoxicity-reducing action of combinations (method not described)
[4] = system: IL-1α production in HPV16 immobilized human adult keratinocytes (KERTr); test: IL-1α production in ketoprofen-treated, UVA-irradiated keratinocytes (ELISA); type: cell-based; details: 75 μM ketoprofen, 6-8 J/cm^2 UVA, 24 hours after irradiation
Protocol: After adding a mixed solution of 75 μM ketoprofen and different concentrations of propyl gallate to a culturing medium (EpiLife™ Serum Free Medium E0151) (Cascade Biologics, Inc.) containing HPV16 immobilized human adult keratinocytes (KERTr) KUK001 (ATCC Co., Rockville, Md.), the mixture was incubated for 2 hours at […] in 5% carbon dioxide/95% air, and then irradiated with 6-8 J/cm^2 UVA. When 24 hours had passed after UVA irradiation, the IL-1α concentration of the culture supernatant was evaluated with an ELISA kit (R&D Systems, Inc.). As a control, there was used the above-mentioned culturing medium to which a solution of 75 μM ketoprofen alone was added, which was incubated for 2 hours at 37° C. in 5% carbon dioxide/95% air, and which was not irradiated with UVA.
An experiment was conducted in the same manner as Example 6 using di-tert-butylhydroxytoluene (BHT) instead of propyl gallate.

Compound: COc1ccc(O)cc1C(C)(C)C [BHA, 2-tert-butyl-4-oxyanisole]
- Auricular edema inhibition (%) ([1]; 0.5% BHA with 2% ketoprofen in ethanol): 24%

Compound: Cc1ccc(C(C)C)c(O)c1 [Thymol, 6-isopropyl-m-cresol]
- hemolysis inhibition at 0.5 µg/mL ([2]; thymol 0.5 μg/mL, propyl gallate 0): 10.8%
- hemolysis inhibition at 1 µg/mL ([2]; thymol 1 μg/mL, propyl gallate 0): 41.1%
- hemolysis inhibition at 2 µg/mL ([2]; thymol 2 μg/mL, propyl gallate 0): 70.7%

Compound: CCCCCCCCC(=O)NCc1ccc(O)c(OC)c1 [nonylic vanillylamide]
- synergistic effect on the phototoxicity-reducing action [3]: No such synergistic effect is observed

Compound: Cc1cc(C(C)(C)C)c(O)c(C(C)(C)C)c1 [BHT, 2,6-di-tert-butyl-p-cresol]
- Auricular edema inhibition (%) ([1]; 1.0% BHT with 2% ketoprofen in ethanol): 16%
- hemolysis inhibition at 0.125 µg/mL ([2]; BHT 0.125 μg/mL, propyl gallate 0): -3.7%
- hemolysis inhibition at 0.25 µg/mL ([2]; BHT 0.25 μg/mL, propyl gallate 0): 9.6%
- hemolysis inhibition at 0.5 µg/mL ([2]; BHT 0.5 μg/mL, propyl gallate 0): 49.6%
- hemolysis inhibition at 1 µg/mL ([2]; BHT 1 μg/mL, propyl gallate 0): 88.9%
- IL-1α production (IL-1α concentration in the culture supernatant) [4]: IL-1α production is inhibited

Compound: CCCOC(=O)c1cc(O)c(O)c(O)c1 [Propyl gallate, propyl gallate]
- Auricular edema inhibition (%) ([1]; Table 4: 0.2% PG with 2% ketoprofen in ethanol): 21%
- Auricular edema inhibition (%) ([1]; Table 5: 0.2% PG with 2% ketoprofen in ethanol): 19%
- hemolysis inhibition at 0.5 µg/mL ([2]; Table 1: propyl gallate 0.5 μg/mL, BHA 0): 25.5%
- hemolysis inhibition at 1 µg/mL ([2]; Table 1: propyl gallate 1 μg/mL, BHA 0): 66%
- hemolysis inhibition at 2 µg/mL ([2]; Table 1: propyl gallate 2 μg/mL, BHA 0): 88.9%
- hemolysis inhibition at 0.5 µg/mL ([2]; Table 2: propyl gallate 0.5 μg/mL, BHT 0): 3.6%
- hemolysis inhibition at 1 µg/mL ([2]; Table 2: propyl gallate 1 μg/mL, BHT 0): 45.4%
- hemolysis inhibition at 2 µg/mL ([2]; Table 2: propyl gallate 2 μg/mL, BHT 0): 91.2%
- hemolysis inhibition at 0.5 µg/mL ([2]; Table 3: propyl gallate 0.5 μg/mL, thymol 0): 2.1%
- hemolysis inhibition at 1 µg/mL ([2]; Table 3: propyl gallate 1 μg/mL, thymol 0): 63.8%
- hemolysis inhibition at 2 µg/mL ([2]; Table 3: propyl gallate 2 μg/mL, thymol 0): 88%
- IL-1α production (IL-1α concentration in the culture supernatant) [4]: IL-1α production is inhibited
